Read-outs that look alike come from different tables or passages of the source.
What was measured:
human aromatase = molecular target: T1, human aromatase (Homo sapiens, UniProt P11511); experiment: human aromatase assay (Supersomes, DBF substrate, fluorescence); type: biochemical; details: for inhibition at 10 µM: 10000 nM
T1 construct: purchased Gentest (Woburn, Mass.)
T1 sequence (P11511 1-503): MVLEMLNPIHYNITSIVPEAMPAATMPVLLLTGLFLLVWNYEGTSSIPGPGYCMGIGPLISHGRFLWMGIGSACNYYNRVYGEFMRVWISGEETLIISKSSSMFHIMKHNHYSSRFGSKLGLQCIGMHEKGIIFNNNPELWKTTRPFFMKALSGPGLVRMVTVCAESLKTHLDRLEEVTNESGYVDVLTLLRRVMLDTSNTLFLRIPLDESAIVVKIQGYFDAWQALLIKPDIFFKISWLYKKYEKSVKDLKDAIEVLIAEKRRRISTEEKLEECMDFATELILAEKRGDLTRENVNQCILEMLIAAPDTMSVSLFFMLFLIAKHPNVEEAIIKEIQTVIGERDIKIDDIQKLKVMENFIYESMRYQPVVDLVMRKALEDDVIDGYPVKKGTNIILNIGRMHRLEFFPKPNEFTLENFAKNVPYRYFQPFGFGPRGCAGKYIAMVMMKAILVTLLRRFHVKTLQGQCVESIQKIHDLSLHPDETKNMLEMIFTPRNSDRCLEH
Text: (§1) Human adrenocortical carcinoma NCl-H295R cell line is obtained from American Type Culture Collection (Manassas, Va.). Insulin/transferrin/selenium (ITS)-A supplement (100×), DMEM/F-12, antibiotic/antimycotic (100×), and fetal calf serum (FCS) are purchased from Gibco (Grand Island, N.Y.). Anti-mouse PVT scintillation proximity assay (SPA) beads and NBS 96-well plates are obtained from Amersham (Piscataway, N.J.) and Corning (Acton, Mass.), respectively. Solid black 96-well flat bottom plates are purchased from Costar (Corning, N.Y.). Aldosterone and angiotensin (Ang II) are purchased from Sigma (St. Louis, Mo.). D-[1,2,6,7-^3H(N)]aldosterone was acquired from PerkinElmer (Boston, Mass.). Nu-serum was a product of BD Biosciences (Franklin Lakes, N.J.). The NADPH regenerating system, dibenzylfluorescein (DBF), and human aromatase Supersomes® are obtained from Gentest (Woburn, Mass.).
To measure aromatase activity, the human aromatase assay is performed in 96-well flat bottom plates according to a published protocol (Stresser et al, 2000) with minor modifications. Briefly, 10 μl of an NADPH regenerating system containing 2.6 mM NADP^+, 6.6 mM glucose 6-phosphate, 6.6 mM MgCl2, and 0.8 U/ml glucose-6-phosphate dehydrogenase in 50 mM potassium phosphate, pH 7.4, is pre-incubated with the test compound at a desired concentration at 30° C. for 10 min in a total volume of 100 μl. Afterwards, 4 pmol of human aromatase, 20 μg of control microsomal protein, and 4 μM DBF in 100 μl of 50 mM potassium phosphate, pH 7.4, is added to each well and incubated at 30° C. for 90 min. The reaction is terminated by the addition of 75 μl of 2 N NaOH to each well. After 2 hr, the product, fluorescein, is measured by a fluorimeter using excitation and emission wavelengths of 485 and 538 nm, respectively.
(§2) Full concentration-response curves of the test compound are performed at least 3 times. The IC50 values are derived using a non-linear least squares curve-fitting program from Microsoft XLfit.

aldosterone synthase = molecular target: T2, aldosterone synthase (Homo sapiens, UniProt P19099); experiment: cellular aldosterone production in NCI-H295R cells stimulated with Ang II (RIA/SPA); type: cell-based; details: human adrenocortical carcinoma NCI-H295R cells, 1 μM Ang II, 24 hr
T2 construct: host or cells: NCI-H295R
T2 sequence (P19099 25-503): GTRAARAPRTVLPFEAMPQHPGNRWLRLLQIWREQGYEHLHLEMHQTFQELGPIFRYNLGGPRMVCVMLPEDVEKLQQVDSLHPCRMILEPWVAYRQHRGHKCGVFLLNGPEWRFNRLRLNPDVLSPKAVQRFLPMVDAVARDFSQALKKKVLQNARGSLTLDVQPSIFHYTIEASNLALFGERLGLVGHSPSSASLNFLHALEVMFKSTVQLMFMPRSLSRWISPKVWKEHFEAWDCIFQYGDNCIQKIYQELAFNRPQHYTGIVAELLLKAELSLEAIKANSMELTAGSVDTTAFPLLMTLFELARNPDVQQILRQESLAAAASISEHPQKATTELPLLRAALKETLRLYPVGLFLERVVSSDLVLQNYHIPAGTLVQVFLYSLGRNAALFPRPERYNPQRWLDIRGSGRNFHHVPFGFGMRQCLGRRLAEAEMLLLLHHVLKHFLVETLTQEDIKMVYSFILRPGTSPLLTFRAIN
Text: as §1
For in vitro measurement of aldosterone activity, human adrenocortical carcinoma NCI-H295R cells are seeded in NBS 96-well plates at a density of 25,000 cells/well in 100 μl of a growth medium containing DMEM/F12 supplemented with 10% FCS, 2.5% Nu-serum, 1 μg ITS/ml, and 1× antibiotic/antimycotic. The medium is changed after culturing for 3 days at 37° C. under an atmosphere of 5% CO2/95% air. On the following day, cells are rinsed with 100 μl of DMEM/F12 and incubated with 100 μl of treatment medium containing 1 μM Ang II and a compound at different concentrations in quadruplicate wells at 37° C. for 24 hr. At the end of incubation, 50 μl of medium is withdrawn from each well for measurement of aldosterone production by an RIA using mouse anti-aldosterone monoclonal antibodies.
Measurement of aldosterone activity can also be performed using a 96-well plate format. Each test sample is incubated with 0.02 μCi of D-[1,2,6,7-^3H(N)]aldosterone and 0.3 μg of anti-aldosterone antibody in phosphate-buffered saline (PBS) containing 0.1% Triton X-100, 0.1% bovine serum albumin, and 12% glycerol in a total volume of 200 μl at room temperature for 1 hr. Anti-mouse PVT SPA beads (50 μl) are then added to each well and incubated overnight at room temperature prior to counting in a Microbeta plate counter. The amount of aldosterone in each sample is calculated by comparing with a standard curve generated using known quantities of the hormone.
as §2

`C=CCC1(c2ccc(C#N)cc2Br)CCCCc2cncn21` (stereo not shown) [4-(5-Allyl-6,7,8,9-tetrahydro-5H-imidazo[1,5-a]azepin-5-yl)-3-bromobenzonitrile] showed an inhibition at 10 µM (human aromatase) of 97% and an IC50 (aldosterone synthase) of 0.032 µM.
`COc1ccc(C2CCc3cncn32)cc1F` (stereo not shown) [5-(3-fluoro-4-methoxyphenyl)-6,7-dihydro-5H-pyrrolo[1,2-c]imidazole] showed an inhibition at 10 µM (human aromatase) of 100% and an IC50 (aldosterone synthase) of 0.159 µM.
`N#Cc1ccc(C2CCCCc3cncn32)c(Cl)c1` (stereo not shown) [3-Chloro-4-(6,7,8,9-tetrahydro-5H-imidazo[1,5-a]azepin-5-yl)benzonitrile] gave an inhibition at 10 µM (human aromatase) of 100% and an IC50 (aldosterone synthase) of 0.048 µM.
For `N#Cc1ccc([C@@H]2C[C@H](Cc3ccc(F)cc3)Cc3cncn32)c(F)c1` (relative stereo) [cis- and trans-3-Fluoro-4-[7-(4-fluorobenzyl)-5,6,7,8-tetrahydroimidazo[1,5-a]pyridin-5-yl]benzonitrile], the inhibition at 10 µM (human aromatase) was 100% and the IC50 (aldosterone synthase) was 0.007 µM.
`C=C1CC(c2ccc(C#N)cc2F)n2cncc21` (stereo not shown) [3-Fluoro-4-(7-methylene-6,7-dihydro-5H-pyrrolo[1,2-c]imidazol-5-yl)benzonitrile] gave an inhibition at 10 µM (human aromatase) of 95% and an IC50 (aldosterone synthase) of 0.004 µM.
With `CC1CCCC(c2ccc(C#N)cc2-c2ccc(F)cc2)n2cncc21` (stereo not shown) [4′-Fluoro-6-(9-methyl-6,7,8,9-tetrahydro-5H-imidazo[1,5-a]azepin-5-yl)biphenyl-3-carbonitrile] the inhibition at 10 µM (human aromatase) was 91% and the IC50 (aldosterone synthase) was 0.002 µM.
Work on `Fc1ccc(C2CCCc3cncn32)c(-c2ccccc2)c1` (stereo not shown) [5-(5-Fluorobiphenyl-2-yl)-5,6,7,8-tetrahydroimidazo[1,5-a]pyridine] yielded an inhibition at 10 µM (human aromatase) of 98% and an IC50 (aldosterone synthase) of 0.057 µM.
`CCCCOC(=O)C1(c2ccc(C#N)cc2OC)CCc2cncn21` (stereo not shown) [5-(4-Cyano-2-methoxyphenyl)-6,7-dihydro-5H-pyrrolo[1,2-c]imidazole-5-carboxylic acid butyl ester] showed an inhibition at 10 µM (human aromatase) of 100% and an IC50 (aldosterone synthase) of 0.006 µM.
`Fc1ccc(C2CCCCc3cncn32)c(Br)c1` (stereo not shown) [5-(2-Bromo-4-fluorophenyl)-6,7,8,9-tetrahydro-5H-imidazo[1,5-a]azepine] showed an inhibition at 10 µM (human aromatase) of 92% and an IC50 (aldosterone synthase) of 0.065 µM.
For `CC1CCCC(c2ccc(C#N)cc2-c2ccc(F)cc2)n2cncc21` (single isomer, unassigned) [4′-Fluoro-6-(9-methyl-6,7,8,9-tetrahydro-5H-imidazo[1,5-a]az] [4′-Fluoro-6-(9-methyl-6,7,8,9-tetrahydro-5H-imidazo[1,5-a]azepin-5-yl)biphenyl-3-carbonitrile], the “% inhibition of aromatase @ 10000 nM” value (human aromatase; 10 µM) was 98%.
For `CC1(c2ccc(C#N)cc2-c2ccccc2)CCCc2cncn21` (stereo not shown) [6-(5-Methyl-5,6,7,8-tetrahydroimidazo[1,5-a]pyridin-5-yl)biphenyl-3-carbonitrile], the IC50 (aldosterone synthase) was 0.27 µM.
`N#Cc1ccc(C2(C(=O)N3CCOCC3)CCc3cncn32)c(Cl)c1` (stereo not shown) [3-Chloro-4-[5-(morpholino-4-carbonyl)-6,7-dihydro-5H-pyrrolo[1,2-c]imidazol-5-yl]benzonitrile] gave an IC50 (aldosterone synthase) of 0.357 µM.
In the case of `N#Cc1ccc(C2CCCCc3cncn32)cc1Br` (stereo not shown) [2-Bromo-4-(6,7,8,9-tetrahydro-5H-imidazo[1,5-a]azepin-5-yl)benzonitrile], the inhibition at 10 µM (human aromatase) is reported as 100% and the IC50 (aldosterone synthase) is reported as 0.023 µM.
With `C=Cc1cc(C#N)ccc1C1CCc2cncn21` (stereo not shown) [4-(6,7-Dihydro-5H-pyrrolo[1,2-c]imidazol-5-yl)-3-vinylbenzonitrile] the inhibition at 10 µM (human aromatase) was 95% and the IC50 (aldosterone synthase) was 0.031 µM.
`COC(=O)C1(c2ccc(C#N)cc2OC(F)(F)F)CCc2cncn21` (stereo not shown) [5-(4-Cyano-2-trifluoromethoxyphenyl)-6,7-dihydro-5H-pyrrolo[1,2-c]imidazole-5-carboxylic acid methyl ester] showed an inhibition at 10 µM (human aromatase) of 99% and an IC50 (aldosterone synthase) of 0.002 µM.
`COc1cc(C#N)ccc1C1CCCc2cncn21` (stereo not shown) [3-Methoxy-4-(5,6,7,8-tetrahydro-imidazo[1,5-a]pyridin-5-yl)benzonitrile] was tested, and the inhibition at 10 µM (human aromatase) was 100% and the IC50 (aldosterone synthase) was 0.27 µM.
`CC1CCCC(c2ccc(C#N)cc2-c2ccc(F)cc2)n2cncc21` (single isomer, unassigned) [4′-Fluoro-6-(9-methyl-6,7,8,9-tetrahydro-5H-imidazo[1,5-a]azepin-5-yl)biphenyl-3-carbonitrile] gave an inhibition at 10 µM (human aromatase) of 81%.
Work on `N#Cc1ccc(C2(C(=O)OCc3ccc(F)cc3)CCc3cncn32)c(Cl)c1` (single isomer, unassigned) [5-(2-Chloro-4-cyanophenyl)-6,7-dihydro-5H-pyrrolo[1,2-c]imidazole-5-carboxylic acid 4-fluorobenzyl ester] yielded an inhibition at 10 µM (human aromatase) of 91%.
Molecule `COc1ccc(CN(C)C(=O)C2(c3ccc(C#N)cc3Cl)CCc3cncn32)cc1` (single isomer, unassigned) [5-(2-Chloro-4-cyanophenyl)-6,7-dihydro-5H-pyrrolo[1,2-c]imidazole-5-carboxylic acid (4-methoxybenzyl)methylamide] has an inhibition at 10 µM (human aromatase) of 98%.
For `N#Cc1ccc(C2(C(=O)OCc3ccc(F)cc3)CCc3cncn32)c(Cl)c1` (single isomer, unassigned) [5-(2-Chloro-4-cyanophenyl)-6,7-dihydro-5H-pyrrolo[1,2-c]imid] [5-(2-Chloro-4-cyanophenyl)-6,7-dihydro-5H-pyrrolo[1,2-c]imidazole-5-carboxylic acid 4-fluorobenzyl ester], the “% inhibition of aromatase @ 10000 nM” value (human aromatase; 10 µM) was 98%.
In the case of `COc1ccc(CN(C)C(=O)C2(c3ccc(C#N)cc3Cl)CCc3cncn32)cc1` (single isomer, unassigned) [5-(2-chloro-4-cyanophenyl)-6,7-dihydro-5H-pyrrolo[1,2-c]imid] [5-(2-Chloro-4-cyanophenyl)-6,7-dihydro-5H-pyrrolo[1,2-c]imidazole-5-carboxylic acid (4-methoxybenzyl)methylamide], the “% inhibition of aromatase @ 10000 nM” value (human aromatase; 10 µM) is reported as 97%.
With `Cc1cc(C#N)ccc1C1CCc2cncn21` (single isomer, unassigned) [4-(6,7-Dihydro-5H-pyrrolo[1,2-c]imidazol-5-yl)-3-methylbenzonitrile] the “% inhibition of aromatase @ 10000 nM” value (human aromatase) was 96% and the inhibition at 10 µM (human aromatase) was 96%.
In the case of `COC(=O)C1(c2ccc(C#N)cc2C(F)(F)F)CCc2cncn21` (stereo not shown) [5-(4-Cyano-2-trifluoromethylphenyl)-6,7-dihydro-5H-pyrrolo[1,2-c]imidazole-5-carboxylic acid methyl ester], the IC50 (aldosterone synthase) is reported as 0.244 µM.
